Legend:
Assay in all cases: Post-emergence herbicidal action against harmful plants (greenhouse)
Format in all cases: in vivo
[1] = test system: Polygonum convolvulus (POLCO)
[2] = test system: Pharbitis purpurea (PHBPU)
[3] = test system: Abutilon theophrasti (ABUTH)
[4] = test system: Cyperus iria (CYPIR)
[5] = test system: Setaria viridis (SETVI)
[6] = test system: Solanum nigrum (SOLNI)
[7] = test system: Erigeron bonariensis (ERIBO)
[8] = test system: Xanthium strumarium (XANST)
[9] = test system: Xanthium strumarium (XANST); remark: listed apart in the source
[10] = test system: Sorghum halepense (SORHA)
Outline: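 Monocot and dicot weed and crop seeds were sown in sandy loam soil in wood-fibre pots, covered with soil, and grown in a greenhouse under good conditions. At the one-leaf stage, 2 to 3 weeks after sowing, the green plant parts were sprayed with compounds formulated as WP or EC in aqueous suspension or emulsion at 600 to 800 l/ha water plus 0.2% wetting agent. Herbicidal action (%) was scored visually against untreated controls, where 100% means the plants died and 0% means they look like controls.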

[11] = test system: Emex australis (EMEAU)
Outline: (§1)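 Plants grown from seed in sandy loam in the greenhouse were sprayed at the one-leaf stage, 2 to 3 weeks after sowing, with WP or EC formulations as aqueous suspension/emulsion at 600 to 800 l/ha water plus 0.2% wetting agent. Damage was rated visually after about 3 weeks versus untreated controls (0% = like control, 100% = dead).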

[12] = test system: Brachiaria platyphylla (BRAPP)
Outline: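 Weed and crop seeds were sown in sandy loam soil in wood-fibre pots, covered with soil, and grown in a greenhouse under good conditions. At the one-leaf stage, 2 to 3 weeks after sowing, plants were sprayed on green parts with WP or EC formulations as aqueous suspension or emulsion at 600 to 800 l/ha water plus 0.2% wetting agent. Herbicidal action was visually scored in percent versus untreated controls.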

[13] = test system: Euphorbia heterophylla (EPHHL); details: for Herbicidal efficacy: EPHHL 21 DAT
Outline: as §1

[14] = application rate 2 g a.i./ha, 21 DAT

Cc1nnc(NC(=O)c2ccc(C(F)(F)F)c([S@+](C)[O-])c2Cl)o1 [I-5]
90%: Herbicidal efficacy [%] against SORHA 10 DAT ([10]; application rate 2 g a.i./ha, table with flufenoximacil)
0%: Herbicidal efficacy ([1]; POLCO 10 DAT, 0.5 g a.i./ha) | Herbicidal efficacy ([1]; POLCO 10 DAT, 2 g a.i./ha) | Herbicidal efficacy ([1]; POLCO 21 DAT, 0.5 g a.i./ha) | Herbicidal efficacy ([1]; POLCO 21 DAT, 2 g a.i./ha) | Herbicidal efficacy ([2]; PHBPU 10 DAT, 0.5 g a.i./ha) | Herbicidal efficacy ([2]; PHBPU 21 DAT, 0.5 g a.i./ha) | Herbicidal efficacy ([2]; PHBPU 21 DAT, 2 g a.i./ha) | Herbicidal efficacy ([6]; SOLNI 21 DAT, 0.5 g a.i./ha) | Herbicidal efficacy [%] against SOLNI 21 DAT ([6]; application rate 0.5 g a.i./ha) | Herbicidal efficacy ([7]; ERIBO 10 DAT, 0.5 g a.i./ha) | Herbicidal efficacy ([7]; ERIBO 21 DAT, 0.5 g a.i./ha) | Herbicidal efficacy ([7]; ERIBO 21 DAT, 2 g a.i./ha) | Herbicidal efficacy [%] against SORHA 10 DAT ([10]; application rate 0.5 g a.i./ha) | Herbicidal efficacy [%] against SORHA 21 DAT ([10]; application rate 0.5 g a.i./ha) | Herbicidal efficacy ([11]; EMEAU 21 DAT, 0.5 g a.i./ha) | Herbicidal efficacy ([12]; BRAPP 10 DAT, 0.5 g a.i./ha) | Herbicidal efficacy ([12]; BRAPP 21 DAT, 0.5 g a.i./ha) | Herbicidal efficacy ([12]; BRAPP 21 DAT, 2 g a.i./ha) | Herbicidal efficacy ([13]; 0.5 g a.i./ha)
10%: Herbicidal efficacy ([3]; ABUTH 21 DAT, 0.5 g a.i./ha) | Herbicidal efficacy ([5]; SETVI 21 DAT, 0.5 g a.i./ha) | Herbicidal efficacy ([7]; ERIBO 10 DAT, 2 g a.i./ha) | Herbicidal efficacy [%] against XANST 21 DAT ([9]; application rate 0.5 g a.i./ha) | Herbicidal efficacy [%] against SORHA 21 DAT ([10]; application rate 2 g a.i./ha) | Herbicidal efficacy ([11]; EMEAU 21 DAT, 2 g a.i./ha) | Herbicidal efficacy ([13]; 2 g a.i./ha)
50%: Herbicidal efficacy ([4]; CYPIR 10 DAT, 0.5 g a.i./ha)
88%: Herbicidal efficacy [%] against EMEAU 21 DAT ([11]; application rate 2 g a.i./ha)
80%: Herbicidal efficacy ([4]; CYPIR 10 DAT, 2 g a.i./ha)
20%: Herbicidal efficacy ([2]; PHBPU 10 DAT, 2 g a.i./ha) | Herbicidal efficacy ([3]; ABUTH 10 DAT, 0.5 g a.i./ha) | Herbicidal efficacy ([5]; SETVI 10 DAT, 0.5 g a.i./ha) | Herbicidal efficacy ([5]; SETVI 21 DAT, 2 g a.i./ha) | Herbicidal efficacy ([6]; SOLNI 10 DAT, 0.5 g a.i./ha) | Herbicidal efficacy ([6]; SOLNI 21 DAT, 2 g a.i./ha) | Herbicidal efficacy [%] against SOLNI 10 DAT ([6]; application rate 0.5 g a.i./ha) | Herbicidal efficacy [%] against SOLNI 21 DAT ([6]; application rate 2 g a.i./ha) | Herbicidal efficacy [%] against XANST 10 DAT ([8]; application rate 0.5 g a.i./ha) | Herbicidal efficacy [%] against XANST 21 DAT ([9]; application rate 2 g a.i./ha) | Herbicidal efficacy [%] against SORHA 10 DAT ([10]; application rate 2 g a.i./ha) | Herbicidal efficacy ([11]; EMEAU 10 DAT, 0.5 g a.i./ha) | Herbicidal efficacy ([11]; EMEAU 10 DAT, 2 g a.i./ha) | Herbicidal efficacy [%] against EMEAU 21 DAT ([11]; application rate 0.5 g a.i./ha)
30%: Herbicidal efficacy [%] against POLCO 21 DAT [1, 14] | Herbicidal efficacy ([3]; ABUTH 21 DAT, 2 g a.i./ha) | Herbicidal efficacy [%] against XANST 21 DAT ([8]; application rate 0.5 g a.i./ha, 21 DAT, table with flufenoximacil) | Herbicidal efficacy [%] against XANST 10 DAT ([8]; application rate 2 g a.i./ha) | Herbicidal efficacy [%] against EMEAU 10 DAT ([11]; application rate 0.5 g a.i./ha, 10 DAT) | Herbicidal efficacy ([12]; BRAPP 10 DAT, 2 g a.i./ha) | Herbicidal efficacy [%] against EPHHL 21 DAT ([13]; application rate 0.5 g a.i./ha)
60%: Herbicidal efficacy ([3]; ABUTH 10 DAT, 2 g a.i./ha) | Herbicidal efficacy ([4]; CYPIR 21 DAT, 2 g a.i./ha) | Herbicidal efficacy ([6]; SOLNI 10 DAT, 2 g a.i./ha) | Herbicidal efficacy [%] against SOLNI 10 DAT ([6]; application rate 2 g a.i./ha)
40%: Herbicidal efficacy [%] against PHBPU 21 DAT ([2]; application rate 0.5 g a.i./ha, 21 DAT) | Herbicidal efficacy ([4]; CYPIR 21 DAT, 0.5 g a.i./ha) | Herbicidal efficacy ([5]; SETVI 10 DAT, 2 g a.i./ha) | Herbicidal efficacy [%] against ERIBO 21 DAT [7, 14] | Herbicidal efficacy [%] against EPHHL 21 DAT ([13]; application rate 2 g a.i./ha)
